Experimental data reported in patent US11945832B2, “Psilocybin and O-acetylpsilocin, salts and solid state forms thereof” (Terran Biosciences Inc., priority 2021, dated 2024).
Values after ≈ are worked out from the molar mass of the structure shown. “Also recorded” adds a separate entry of the source.

Legend:
[1] = Hygroscopicity test in relative humidity (RH) jars; assay type: physicochemical
Procedure: Solids deliquesced within approx. 1 hour of exposure to elevated relative humidity. The sample was capped and placed in a freezer for storage.

[2] = Dynamic vapor sorption (DVS) analysis, hygroscopicity; assay type: physicochemical; conditions: for overall water uptake (DVS): 5-95% RH; for solid form of post-DVS specimen (XRPD): after DVS 5-95-5% RH
Procedure: (§1) DVS analysis was carried out using a TA Instruments Q5000 Dynamic Vapor Sorption analyzer. The instrument was calibrated with standard weights and a sodium bromide standard for humidity. Approximately 10-25 mg of sample was loaded into a metal-coated quartz pan for analysis. The sample was analyzed at 25° C. with a maximum equilibration time of one hour in 10% relative humidity (RH) steps from 5 to 95% RH (adsorption cycle) and from 95 to 5% RH (desorption cycle). The movement from one step to the next occurred either after satisfying the equilibrium criterion of 0.01% weight change or, if the equilibrium criterion was not met, after one hour. The percent weight change values were calculated using Microsoft Excel®.
as §1, with “Dynamic Vapor Sorption (DVS)” for “DVS”, “is” for “was”, “is” for “were”, “Excel.” for “Excel®.”

[3] = test system: Psilocybin Induced Head Twitches in Mice; experiment: Psilocybin-induced head-twitch response in mice, 5-HT2A antagonist given i.v. after psilocybin; assay type: in vivo, C57BL/6J mice; conditions: for Result (suppression of psilocybin-induced head twitch): 5HT2A antagonist i.v. at T=7 min, summary of Examples 13-21; for effect on psilocybin-induced head twitch (summary of Examples 13-21): administered after psilocybin, compared to vehicle-treated mice, dose not given; for suppression of psilocybin-induced head-twitch response: monitored until 40 min
From the text: The head-shake response is elicited by a wide variety of known hallucinogens such as LSD, psilocybin, psilocin, N,N-dimethyltryptamine (DMT), and mescaline as well as serotonin-releasing agents and direct 5-HT2 agonists. […] Later studies have confirmed 5-HT2A receptors are the primary, direct mediators of the response and that the headshake response in rats is essentially the same as head-twitches in mice, at least in regards to similarity in appearance and 5-HT2A receptor dependence.
Male C57BL/6J mice (approximately 25 g) were group housed. Animals were maintained under a 12 h light/dark cycle, at 23° C. with humidity controlled.
Psilocybin was formulated in saline at a concentration of 0.4 mg/mL to give a dose of 2 mg/kg when administered i.p. in a 5 mL/kg dosing volume.
(§2) At T=−60 min, C57BL/6J mice were individually housed into transparent observation cages with bedding removed and left to habituate. At T=−3 min, mice were placed into heated cages at 40° C. At T=0 h, groups of 3 mice were dosed intraperitoneally with psilocybin (2 mg/kg). Following dosing, mice were replaced into the heated cages and head-twitch responses continuously scored for 7 min. After 7 min, mice were intravenously dosed via the lateral tail vein with either vehicle 1 (saline) or volinanserin 1 mg/kg in 5 mL/kg dosing volumes. Mice were replaced into the observation cages and head twitch behavior were monitored until 40 min after agonist dosing. Cumulative head-twitches were measured every 2 minutes until 40 minutes after agonist dosing.
as §2, with “min. […]” for “min. After 7 min, mice were intravenously dosed via the lateral tail vein with either vehicle 1 (saline) or volinanserin 1 mg/kg in 5 mL/kg dosing volumes.”, “behavior was” for “behavior were”, “Cumulative head-twitch behavior was” for “Cumulative head-twitches were”
as §2, with “min. […]” for “min. After 7 min, mice were intravenously dosed via the lateral tail vein with either vehicle 1 (saline) or volinanserin 1 mg/kg in 5 mL/kg dosing volumes.”, “behavior was” for “behavior were”, “Cumulative head-twitch behavior was” for “Cumulative head-twitches were”
as §2, with “min. […]” for “min. After 7 min, mice were intravenously dosed via the lateral tail vein with either vehicle 1 (saline) or volinanserin 1 mg/kg in 5 mL/kg dosing volumes.”, “behavior was” for “behavior were”, “Cumulative head-twitch behavior was” for “Cumulative head-twitches were”
as §2, with “min. […]” for “min. After 7 min, mice were intravenously dosed via the lateral tail vein with either vehicle 1 (saline) or volinanserin 1 mg/kg in 5 mL/kg dosing volumes.”, “behavior was” for “behavior were”, “Cumulative head-twitch behavior was” for “Cumulative head-twitches were”

[4] = Estimated aqueous solubility of O-acetyl psilocin salts (aliquot addition method); conditions: bounds printed as 'Small particles present at ≤ x mg/mL'
Procedure: Whether dissolution had occurred was judged by visual inspection after addition of each solvent aliquot. […] Solubility numbers were calculated by dividing the weight of the sample by the total amount of solvent used to dissolve the sample. […] The solubility number is expressed as “greater than or equal to” if dissolution occurred on addition of the first solvent aliquot.

[5] = Estimated solubilities of psilocybin (solvent aliquot addition, visual inspection); assay type: physicochemical; conditions: room temperature
From the text: Solubilities of psilocybin in a few solvents were estimated.

[6] = C57BL/6J mice, psilocybin 2 mg/kg i.p. at T=0, head twitches scored to 40 min
[7] = antagonist 1 mg/kg i.v. 7 min after psilocybin 2 mg/kg i.p.
[8] = antagonist 4 mg/kg i.v. 7 min after psilocybin 2 mg/kg i.p.

With `CC(=O)Oc1cccc2[nH]cc(CCN(C)C)c12.O=P(O)(O)O` [phosphate salt (Forms A+B), O-acetyl psilocin phosphate] the “hygroscopicity by RH jars, in words” value ([1]; RH jars) was “low”.

In the case of `CC(=O)Oc1cccc2[nH]cc(CCN(C)C)c12.O=C(O)C(O)C(O)C(=O)O` [L-tartrate, Form A], the hygroscopicity ([2]; 5-85% RH, DVS) is reported as “non-hygroscopic”, the “hydrate formation (DVS)” value ([2]; DVS, at high RH) is reported as “resulting in hydrate” and the Water uptake ([2]; above 85% RH, DVS) is reported as roughly 6%. The hygroscopicity ([2]; above 85% RH, DVS) was “hygroscopic”.

In the case of `N#Cc1c[nH]c2c(C(=O)N3CCN(CCc4ccc(F)cc4)CC3)cccc12` [pruvanserin], the “Result (suppression of psilocybin-induced head twitch)” value [3, 6] is reported as “Full suppression of head twitch”, the “effect on psilocybin-induced head twitch (summary of Examples 13-21)” value (shortened to “effect on psilocybin-induced head twitch”) [3] is reported as “full ending” and the “suppression of psilocybin-induced head-twitch response” value [3, 7] is reported as “completely suppressed”.

Compound `CC(=O)Oc1cccc2[nH]cc(CCN(C)C)c12.Cl` [O-acetyl psilocin hydrochloride] has a time to deliquescence ([1]; open vial in 75% RH jar) of no more than 1 h.

For Maleate, the “Water solubility” value [4] was greater than 50000 µg/mL.

For `CC(=O)Oc1cccc2[nH]cc(CCN(C)C)c12.O=C(O)/C=C/C(=O)O` [O-acetylpsilocin-fumarate Form A, O-acetylpsilocin-fumarate], the “overall water uptake (DVS)” value [2] was “approx. 0.1%” and the “hygroscopicity (DVS), in words” value ([2]; whole RH range (5-95% RH)) was “non-hygroscopic”.

In the case of `COc1cccc([C@H](O)C2CCN(CCc3ccc(F)cc3)CC2)c1OC` [volinanserin], the “Result (suppression of psilocybin-induced head twitch)” value [3, 6] is reported as “Full suppression of head twitch”, the “effect on psilocybin-induced head twitch” value [3] is reported as “full ending” and the “suppression of psilocybin-induced head-twitch response” value [3, 7] is reported as “completely suppressed”.

With `CC(=O)Oc1cccc2[nH]cc(CCN(C)C)c12.O=C(O)C[C@H](O)C(=O)O` [L-malate salt, Form B, O-Acetyl Psilocin Malate] the “hygroscopicity (DVS), in words” value ([2]; 5-85% RH) was “non-hygroscopic”, the “hydrate formation on DVS” value ([2]; above 85% RH) was “no hydrate formation occurred” and the “hydrate formation on DVS” value ([2]; above 85% RH, listed as Malate B) was “possible hydrate formation”. The “water uptake (DVS)” value ([2]; above 85% RH, unit not given) was “approx. 4.500” and the “solid form of post-DVS specimen (XRPD)” value [2] was “consistent with Form B”.

With `O=C(c1ccc(F)cc1)C1CCN(CCn2c(=O)[nH]c3ccccc3c2=O)CC1` [ketanserin] the “suppression of psilocybin-induced head-twitch response” value ([3]; antagonist 2 mg/kg i.v. 7 min after psilocybin 2 mg/kg i.p.) was “completely suppressed”.

For `O=c1[nH]c2ccccc2n1CCN1CCN(c2cccc(C(F)(F)F)c2)CC1` [flibanserin], the “Result (suppression of psilocybin-induced head twitch)” value [3, 6] was “Partial suppression of head twitch”, the “effect on psilocybin-induced head twitch” value [3] was “partial suppression” and the “suppression of psilocybin-induced head-twitch response” value [3, 7] was “partially suppressed”. The “suppression of psilocybin-induced head-twitch response” value [3, 8] was “partially suppressed”.

With `CC(=O)Oc1cccc2[nH]cc(CCN(C)C)c12.O=C(O)/C=C\C(=O)O` [maleate salt, Form A, O-acetyl psilocin maleate] the “overall water uptake (DVS)” value [2] was “approx. 0.8%”, the “solid form of post-DVS specimen (XRPD)” value [2] was “consistent with Form A” and the “hygroscopicity (DVS), in words” value ([2]; whole RH range (5-95% RH)) was “non-hygroscopic”. The “hygroscopicity (DVS), in words” value ([2]; whole RH range (5-95% RH), listed as maleate salt) was “minimal water sorption”.

For `CC(=O)Oc1cccc2[nH]cc(CCN(C)C)c12.CS(=O)(=O)O` [mesylate salt, Form A, O-Acetyl Psilocin Mesylate], the “hygroscopicity (DVS), in words” value ([2]; 5-55% RH) was “non-hygroscopic”, the “water uptake (DVS)” value ([2]; above 55% RH) was 40% and the “solid form of post-DVS specimen (XRPD)” value [2] was “liquid”.

With `Cc1nc2sccn2c(=O)c1CCN1CCC(=C(c2ccc(F)cc2)c2ccc(F)cc2)CC1` [ritanserin] the “Result (suppression of psilocybin-induced head twitch)” value [3, 6] was “Full suppression of head twitch”, the “effect on psilocybin-induced head twitch” value [3] was “full ending” and the “suppression of psilocybin-induced head-twitch response” value [3, 7] was “completely suppressed”.

For `CN(C)CCc1c[nH]c2cccc(OP(=O)(O)O)c12` [psilocybin], the solubility ([5]; organic solvent or mixture, thermodynamic from solid, 1,4-dioxane) was less than 1000 µg/mL, the solubility ([5]; organic solvent or mixture, thermodynamic from solid, 2-propanol (2-PrOH)) was less than 1000 µg/mL and the solubility ([5]; organic solvent or mixture, thermodynamic from solid, Acetone) was less than 1000 µg/mL. It also gave a solubility ([5]; organic solvent or mixture, thermodynamic from solid, Acetonitrile (ACN)) of less than 1000 µg/mL, a solubility ([5]; organic solvent or mixture, thermodynamic from solid, Dichloromethane (DCM)) of less than 1000 µg/mL and a solubility ([5]; organic solvent or mixture, thermodynamic from solid, Ethanol (EtOH)) of less than 1000 µg/mL. For the same compound, the solubility ([5]; organic solvent or mixture, thermodynamic from solid, Ethyl acetate (EtOAc)) was less than 1000 µg/mL, the solubility ([5]; organic solvent or mixture, thermodynamic from solid, Methanol (MeOH)) was 11000 µg/mL (≈ 38.7 mM) and the solubility ([5]; organic solvent or mixture, thermodynamic from solid, Tetrahydrofuran (THF)) was less than 1000 µg/mL. For the same compound, the solubility ([5]; thermodynamic from solid, Water) was 4000 µg/mL (≈ 14.1 mM) and the “solid form of post-DVS specimen (XRPD)” value [2] was “converted to a hydrate Form B; also recorded: Crystalline Form B (hydrate)”.

With `CC(=O)Oc1cccc2[nH]cc(CCN(C)C)c12.O=C(O)C(O)C(O)C(=O)O` [L-tartrate salt, Form A, O-Acetyl Psilocin Tartrate] the “hygroscopicity (DVS), in words” value ([2]; 5-85% RH) was “non-hygroscopic”, the “hydrate formation on DVS” value ([2]; above 85% RH) was “consistent with hydrate formation” and the “water uptake (DVS)” value ([2]; above 85% RH) was “approx. 6%”. The “hydrate formation on DVS” value ([2]; above 85% RH, listed as Tartrate A) was “possible hydrate formation” and the “solid form of post-DVS specimen (XRPD)” value [2] was “consistent with Form A by XRPD analysis and exhibited additional diffraction peaks”.

In the case of `COc1ccc(NC(=O)Nc2ccc(F)cc2F)cc1-c1c(Br)cnn1C` [nelotanserin], the “Result (suppression of psilocybin-induced head twitch)” value [3, 6] is reported as “Partial suppression of head twitch,”, the “Result (suppression of psilocybin-induced head twitch) at high dose” value ([3]; C57BL/6J mice, psilocybin 2 mg/kg i.p. at T=0, antagonist at high dose (nelotanserin 4 mg/kg i.v.) at T=7 min, head twitches scored to 40 min) is reported as “full suppression at high dose” and the “effect on psilocybin-induced head twitch” value [3] is reported as “partial suppression”. The “suppression of psilocybin-induced head-twitch response” value [3, 7] was “partially suppressed” and the “suppression of psilocybin-induced head-twitch response” value [3, 8] was “completely suppressed; also recorded: completed suppressed”.
